Data set [1] is described as follows: Pharmacokinetics in male Sprague Dawley rats. The class given is in vivo. Conditions: rat, sc, mean, single subcutaneous administration of 200 nMol/kg, plasma; for half-life: read-out: t½ (converted). The procedure:
The pharmacokinetics of the exemplary analogs are evaluated following a single subcutaneous administration of […] to male Sprague Dawley rats. Blood samples are collected over 120 hours, and resulting individual plasma concentrations are used to calculate pharmacokinetic parameters. Peptide plasma (K3 EDTA) concentrations are determined using a qualified LC/MS method that measured the intact mass of the ANP polypeptide. Each peptide and an analog as an internal standard are extracted from 100% specie specified plasma using methanol with 0.1% formic acid. A Thermo Q-Exactive, High Resolution Instrument, and a Thermo Easy Spray PepMap are combined for LC/MS detection.

A further data set has as its target T1, human NPRA (Homo sapiens, UniProt P16066).
T1 construct: Full-Length cDNA Cloning and Generation of Cell Lines Overexpressing Natriuretic Peptide Receptors (NPRs); expressed in transfected cells; host or cells: Jump-in T-Rex HEK293 cells, pJTI R4 CMV-TO MCS pA vector, tetracycline induction
T1 sequence (P16066 33-1061): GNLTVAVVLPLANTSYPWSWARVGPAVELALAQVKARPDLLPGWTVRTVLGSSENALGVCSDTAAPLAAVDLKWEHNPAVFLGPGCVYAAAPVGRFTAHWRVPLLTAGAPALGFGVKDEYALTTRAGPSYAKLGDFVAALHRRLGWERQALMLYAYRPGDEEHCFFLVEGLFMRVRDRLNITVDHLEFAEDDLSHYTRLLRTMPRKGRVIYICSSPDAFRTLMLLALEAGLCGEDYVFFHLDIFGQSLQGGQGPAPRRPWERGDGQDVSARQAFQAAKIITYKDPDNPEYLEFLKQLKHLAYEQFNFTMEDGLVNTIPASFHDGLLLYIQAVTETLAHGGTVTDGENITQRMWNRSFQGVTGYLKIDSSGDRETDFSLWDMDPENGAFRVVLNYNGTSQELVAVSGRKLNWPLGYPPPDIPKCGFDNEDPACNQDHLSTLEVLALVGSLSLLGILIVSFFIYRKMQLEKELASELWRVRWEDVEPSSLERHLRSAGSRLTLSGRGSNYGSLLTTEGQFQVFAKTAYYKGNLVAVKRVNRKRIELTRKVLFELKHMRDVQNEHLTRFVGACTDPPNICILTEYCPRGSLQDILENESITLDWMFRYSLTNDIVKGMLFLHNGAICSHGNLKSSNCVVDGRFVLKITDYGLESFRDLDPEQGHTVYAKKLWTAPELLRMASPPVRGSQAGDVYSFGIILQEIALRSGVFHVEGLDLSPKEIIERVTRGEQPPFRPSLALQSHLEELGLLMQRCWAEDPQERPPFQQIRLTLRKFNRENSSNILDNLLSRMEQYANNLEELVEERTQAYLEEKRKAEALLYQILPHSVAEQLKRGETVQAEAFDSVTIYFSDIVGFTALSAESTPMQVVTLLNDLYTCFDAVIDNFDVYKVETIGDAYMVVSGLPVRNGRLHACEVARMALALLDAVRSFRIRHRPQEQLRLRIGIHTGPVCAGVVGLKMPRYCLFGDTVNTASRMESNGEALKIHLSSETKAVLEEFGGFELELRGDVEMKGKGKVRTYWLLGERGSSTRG
In words: Human NPRA cGMP activity assay (HTRF) in HEK293 cells overexpressing NPRA. Type of data set: cell-based. The method in brief:
(§1)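 cGMP measured by HTRF and scaled between buffer (minimum) and 100 nM amidated rat ANP (maximum). Polypeptides in 10-fold steps from 10 μM to 1 pM, 0.5% DMSO, 0.5 mM IBMX, 40 min at room temperature, on induced NPRA-overexpressing HEK293 cells.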
For orientation: In TR-FRET formats the signal depends on donor and acceptor labels being close together.

The next data set has as its target T2, rat NPRA (Rattus norvegicus, UniProt P18910).
T2 construct: Full-Length cDNA Cloning and Generation of Cell Lines Overexpressing Natriuretic Peptide Receptors (NPRs); expressed in transfected cells; host or cells: Jump-in T-Rex HEK293 cells, pJTI R4 CMV-TO MCS pA vector, tetracycline induction
T2 sequence (P18910 29-1057): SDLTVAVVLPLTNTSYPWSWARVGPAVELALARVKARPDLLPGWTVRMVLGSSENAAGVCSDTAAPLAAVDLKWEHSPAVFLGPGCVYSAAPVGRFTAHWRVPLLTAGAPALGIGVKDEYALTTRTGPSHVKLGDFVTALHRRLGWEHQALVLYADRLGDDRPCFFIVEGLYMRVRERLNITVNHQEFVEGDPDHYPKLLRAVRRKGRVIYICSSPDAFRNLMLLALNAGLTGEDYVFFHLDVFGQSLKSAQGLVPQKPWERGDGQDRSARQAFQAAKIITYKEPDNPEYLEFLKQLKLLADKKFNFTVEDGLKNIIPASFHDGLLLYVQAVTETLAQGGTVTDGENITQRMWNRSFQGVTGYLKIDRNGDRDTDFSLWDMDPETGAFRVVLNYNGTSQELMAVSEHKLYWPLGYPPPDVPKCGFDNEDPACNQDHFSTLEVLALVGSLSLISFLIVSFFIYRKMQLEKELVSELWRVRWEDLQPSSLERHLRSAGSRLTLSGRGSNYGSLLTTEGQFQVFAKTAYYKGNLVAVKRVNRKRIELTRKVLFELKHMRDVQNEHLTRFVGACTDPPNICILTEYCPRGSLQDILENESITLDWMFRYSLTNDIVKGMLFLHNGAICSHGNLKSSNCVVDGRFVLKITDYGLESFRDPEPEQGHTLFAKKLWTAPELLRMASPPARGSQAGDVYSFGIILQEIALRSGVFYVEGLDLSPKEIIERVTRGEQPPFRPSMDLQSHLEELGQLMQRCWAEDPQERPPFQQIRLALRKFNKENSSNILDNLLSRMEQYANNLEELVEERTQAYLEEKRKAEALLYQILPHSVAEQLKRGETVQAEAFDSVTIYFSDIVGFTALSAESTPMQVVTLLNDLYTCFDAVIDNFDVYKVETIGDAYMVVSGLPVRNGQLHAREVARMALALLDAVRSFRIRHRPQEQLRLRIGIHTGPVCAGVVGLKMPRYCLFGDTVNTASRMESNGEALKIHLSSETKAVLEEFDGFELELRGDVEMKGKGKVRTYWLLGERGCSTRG
In words: Rat NPRA cGMP activity assay (HTRF) in HEK293 cells overexpressing NPRA. Type of data set: cell-based. As to conditions: assay buffer with 0.1% casein, read-out: cGMP Assay (EC50, pM) w/Casein rNPRA. The method in brief:
as §1

Read-outs that look alike come from different tables or passages of the source. Numbered stars: 1 amine (or outer) side, 2 acyl side, 3 side chain; on linkers, the order of the positions; unused ones are H or OH. Bridge positions count the residues as written; N and C are the ends. Square brackets hold non-standard residues; d marks the D form. * marks the point of attachment. PEG24 = NCCOCCOCCOCCOCCOCCOCCOCCOCCOCCOCCOCCOCCOCCOCCOCCOCCOCCOCCOCCOCCOCCOCCOCCOCCC(=O)O; C20 diacid = O=C(O)CCCCCCCCCCCCCCCCCCC(=O)*; γGlu = O=C(O)[C@H](CCC(=O)[*:2])N[*:1]; CH2 = C([*:1])[*:2]; βAla = NCCC(=O)O

By CL/F is commonly meant the apparent clearance, not corrected for the fraction that reaches the circulation. As for `CC[C@H](C)[C@@H]1NC(=O)[C@H](CCCNC(=N)N)NC(=O)[C@H](CC(=O)O)NC(=O)[C@H]([C@@H](C)CC)NC(=O)[C@H](CCCNC(=N)N)NC(=O)CNC(=O)CNC(=O)[C@H](Cc2ccccc2)NC(=O)[C@@H](NC(=O)[C@H](CO)NC(=O)[C@H](CO)NC(=O)[C@H](CCCNC(=N)N)NC(=O)CCNC(=O)[C@H](CCCCN)NC(=O)[C@H](CCC(=O)O)NC(=O)CNC(=O)[C@H](CCCCN)NC(=O)[C@H](CCC(=O)O)NC(=O)[C@H](CCCCN)NC(=O)[C@H](CCC(=O)O)NC(=O)[C@H](CCCCN)NC(=O)[C@H](CCC(=O)O)NC(=O)CC[C@H](NC(=O)CCCCCCCCCCCCCCCCC(=O)O)C(=O)O)CSCSC[C@@H](C(=O)N2CCC[C@H]2C(=O)N[C@@H](CO)C(=O)N[C@@H](Cc2ccccc2)C(=O)N[C@@H](CCCNC(=N)N)C(=O)N[C@@H](Cc2c[nH]cn2)C(=O)NCC(=O)NCC(=O)N[C@@H](CCCCN)C(=O)N[C@@H](CO)C(=O)N[C@@H](CO)C(=O)NCC(=O)N[C@@H](C)C(=O)N2CCC[C@H]2C(=O)N2CCC[C@H]2C(=O)N2CCC[C@H]2C(=O)N[C@@H](CO)C(N)=O)NC(=O)CNC(=O)[C@H](CC(C)C)NC(=O)CNC(=O)[C@H](CO)NC(=O)[C@H](Cc2ccc(O)cc2)NC(=O)[C@H](Cc2c[nH]cn2)NC(=O)CNC1=O` [Example 76], the half-life in data set [1] (in vivo) was 30 h. Besides, the CL/F in data set [1] is 0.118 mL/min/kg.
In the case of “{C20 diacid-γGlu}-EKEKEKG[PEG24]EK[βAla]RSSCFGGKIDRIGHQSGLGCPSFRHGSPSSGAPPPS-NH2 (linker 15-31 via CH2) [Example 7]”, in data set [1], the CL/F was 0.055 mL/min/kg and the half-life is 19 h.
Regarding “{C20 diacid-γGlu}-EKEKEKG[PEG24]EK[βAla]RSSCFGGKIDRIGHYSGLGCPSFRHGSPSSGAPPPS-NH2 (linker 15-31 via CH2) [Example 6]”, the EC50 at human NPRA (cGMP Assay (EC50, pM) w/Casein hNPRA, assay buffer with 0.1% casein) was 1530 pM. Moreover, in data set [1], the apparent clearance (CL/F) was 0.108 mL/min/kg and the half-life was 17 h.
For the compound `CC[C@H](C)[C@@H]1NC(=O)[C@H](CCCNC(=N)N)NC(=O)[C@H](CC(=O)O)NC(=O)[C@H]([C@@H](C)CC)NC(=O)[C@H](CCCNC(=N)N)NC(=O)CNC(=O)CNC(=O)[C@H](Cc2ccccc2)NC(=O)[C@@H](NC(=O)[C@H](CO)NC(=O)[C@H](CO)NC(=O)[C@H](CCCNC(=N)N)NC(=O)[C@H](CCCNC(=N)N)NC(=O)[C@H](Cc2ccncc2)NC(=O)[C@H](CO)NC(=O)CNC(=O)[C@H](CCCCN)NC(=O)[C@H](CCC(=O)O)NC(=O)[C@H](CCCCN)NC(=O)[C@H](CCC(=O)O)NC(=O)[C@H](CCCCN)NC(=O)[C@H](CCC(=O)O)NC(=O)CC[C@H](NC(=O)CCCCCCCCCCCCCCCCCCC(=O)O)C(=O)O)CSSC[C@@H](C(=O)N2CCC[C@H]2C(=O)N[C@@H](CO)C(=O)N[C@@H](Cc2ccccc2)C(=O)N[C@@H](CCCNC(=N)N)C(=O)N[C@@H](Cc2c[nH]cn2)C(=O)NCC(=O)NCC(=O)N2CCC[C@H]2C(=O)N[C@@H](CO)C(=O)N[C@@H](CO)C(=O)NCC(=O)N[C@@H](C)C(=O)N2CCC[C@H]2C(=O)N2CCC[C@H]2C(=O)N2CCC[C@H]2C(=O)N[C@@H](CO)C(N)=O)NC(=O)CNC(=O)[C@H](CC(C)C)NC(=O)CNC(=O)[C@H](CO)NC(=O)[C@H](CCC(N)=O)NC(=O)[C@H](Cc2c[nH]cn2)NC(=O)CNC1=O` [Example 1], the EC50 on human NPRA (cGMP Assay (EC50, pM) w/BSA hNPRA, assay buffer with 0.1% BSA) came out at 11600 pM. In addition, in data set [1], the apparent clearance (CL/F) was 0.343 mL/min/kg and the half-life was 11 h.
Turning to `CC[C@H](C)[C@@H]1NC(=O)[C@H](CCCNC(=N)N)NC(=O)[C@H](CC(=O)O)NC(=O)[C@H]([C@@H](C)CC)NC(=O)[C@H](CCCNC(=N)N)NC(=O)[C@H](CCCCN)NC(=O)CNC(=O)[C@H](Cc2ccccc2)NC(=O)[C@@H](NC(=O)[C@H](CO)NC(=O)[C@H](CO)NC(=O)[C@H](CCCNC(=N)N)NC(=O)CCNC(=O)[C@H](CCCCN)NC(=O)[C@H](CCC(=O)O)NC(=O)CCOCCOCCOCCOCCOCCOCCOCCOCCOCCOCCOCCOCCOCCOCCOCCOCCOCCOCCOCCOCCOCCOCCOCCOCCNC(=O)CNC(=O)[C@H](CCCCN)NC(=O)[C@H](CCC(=O)O)NC(=O)[C@H](CCCCN)NC(=O)[C@H](CCC(=O)O)NC(=O)[C@H](CCCCN)NC(=O)[C@H](CCC(=O)O)NC(=O)CC[C@H](NC(=O)CCCCCCCCCCCCCCCCCCC(=O)O)C(=O)O)CSCSC[C@@H](C(=O)N2CCC[C@H]2C(=O)N[C@@H](CO)C(=O)N[C@@H](Cc2ccccc2)C(=O)N[C@@H](CCCNC(=N)N)C(=O)N[C@@H](Cc2c[nH]cn2)C(=O)NCC(=O)N[C@@H](CO)C(=O)N2CCC[C@H]2C(=O)N[C@@H](CO)C(=O)N[C@@H](CO)C(=O)NCC(=O)N[C@@H](C)C(=O)N2CCC[C@H]2C(=O)N2CCC[C@H]2C(=O)N2CCC[C@H]2C(=O)N[C@@H](CO)C(N)=O)NC(=O)CNC(=O)[C@H](CC(C)C)NC(=O)CNC(=O)[C@H](CO)NC(=O)[C@H](CCC(N)=O)NC(=O)[C@H](Cc2c[nH]cn2)NC(=O)CNC1=O` [Example 4], on rat NPRA, the EC50 was determined as 22500 pM. In data set [1], the apparent clearance CL/F was 0.0717 mL/min/kg and the half-life was 15 h.

(Values after US20240174727A1, “LONG-ACTING NATRIURETIC PEPTIDES AND USES THEREOF” (Eli Lilly and Company, priority 2022, published 2024).)
